Here are results for two compounds from patent publication US20210162028A1, “Methods for Inducing Intermittent Fasting and Modulating Autophagy” (The Hong Kong Polytechnic University, priority 2019, published 2021).

“Also recorded” adds a separate entry of the source.

Assay type in all cases: in vivo, mouse
Assay [1] can be described thus: Daily food intake / 7-day intermittent fasting cycle in mice. The conditions noted are these: DIO C57BL/6J male mice on HFD. An excerpt: One of the most noticeable effects of intermittent fasting is reduction of bodyweight. […] Specifically, C57BL/6J, which is the most commonly used mouse strain for polygenic obesity model, was used in the study. It is well-reported that C57BL/6J male mice feeding on a high-fat diet will have prominent weight gain, become obese and develop hyperinsulinemia, hyperglycemia, impaired glucose tolerance and insulin resistance [Gallou-Kabani et al., 2007, Obesity 15(8):1996-2005]. Obesity was induced in C57BL/6J male mice via feeding ad libitum a high-fat diet containing 60 kcal % fat (HFD; Research Diets, D12492) for 12-14 weeks starting from 5-week old. These mice are referred as diet-induced obese (DIO) mice. DIO mice were stratified according to bodyweight into 2 groups. […] Both groups of mice continued to feed ad libitum on the HFD throughout the treatment period. One group of age-matched C57BL/6J male mice feeding ad libitum on an ordinary rodent chow diet (CD; LabDiet, 50IF/6F) and injected with vehicle served as the lean control [CD (vehicle) group]. Food intake and bodyweight of mice were measured daily. […] DIO mice were injected with rhArg on Day 0, which was Day 7 of the previous cycle. Similarly, Day 7 of the cycle shown in FIG. 1B was Day 0 of the next cycle. […] Bodyweight gain is one of the biomarkers related to aging.
C57BL/6J male mice were fed a high-fat diet from 5-week old for 12 weeks. They were then stratified into 3 groups according to their bodyweight and individually caged: (i) one group of mice received i.p. injection of 600 U N-ABD094-rhArg (SEQ ID NO: 50) once a week [HFD (rhArg) group] and was fed ad libitum the HFD for 5 weeks; (ii) one group of mice received i.p. injection of saline once a week, and was fed a predetermined amount of HFD on each day to artificially create a 7-day intermittent fasting cycle that mimics the pattern of food intake of mice administered once a week with rhArg [HFD (artificial IF) group)]; (iii) one group of mice was injected with saline once a week and was fed ad libitum the HFD [HFD (vehicle) group].

Assay [2] in a line: Bodyweight of treated mice. The conditions noted are these: DIO C57BL/6J male mice on HFD.
The nature of assay [3]: Insulin tolerance test (ITT). The conditions noted are these: DIO C57BL/6J male mice on HFD, after 6 weeks. The text has this:
In terms of reversing insulin resistance on pre-existing obese mice, insulin tolerance test (ITT) was employed (FIG. 59).
In terms of reversing insulin resistance on pre-existing obese mice, insulin tolerance test (ITT) was employed (FIG. 68A).

Assay [4] is described as follows: Glucose tolerance test (GTT). The conditions noted are these: DIO C57BL/6J male mice on HFD, after 7 weeks.
The next assay has as its system hepatocyte. Description: Transmission electron microscopy of liver (hepatocytes). The conditions noted are these: DIO C57BL/6J male mice on HFD, 3 weeks, Day 3. An excerpt: FIG. 47 illustrates the liver examined by transmission electron microscopy at Day 1, Day 3, Day 5 and Day 7 of the 7-day intermittent after N-ABD094-rhArg injection.
The presence of autophagosome in liver after treatment for 3 weeks were examined by TEM (FIGS. 62, 63 and 64).
The presence of autophagosome in liver after treatment for 3 weeks were examined by transmission electron microscopy (FIGS. 71 and 72).

A short description of assay [5]: Hepatic steatosis (oil Red O / H&E staining, liver triglyceride). The conditions noted are these: DIO C57BL/6J male mice on HFD, 11 weeks after treatment.
Assay [6] in a line: Fat pad and organ mass at end of treatment. The conditions noted are these: DIO C57BL/6J male mice on HFD.
Setting [7] is: rhArg once a week alone or 0.33 mg RA daily alone.
Setting [8] is: rhArg weekly and/or 0.33 mg/day RA.
[9] abbreviates: rhArg weekly and/or 0.33 mg RA daily.
Where [10] appears, read: 300 U/week rhArg and/or 300 mg/kg metformin.
[11] abbreviates: 300 U rhArg once a week and/or 300 mg/kg metformin daily.

Take `CC1=C(/C=C/C(C)=C/C=C/C(C)=C/C(=O)O)C(C)(C)CCC1` [RA, all-trans retinoic acid, reference compound]: the “Pattern of food intake (intermittent fasting cycle)” value in assay [1] (200 U rhArg i.p. once a week and/or 0.33 mg RA daily) is “stable”. The “Total food intake per week, less than HFD (vehicle) group” value in assay [1] (200 U rhArg i.p. once a week and/or 0.33 mg RA daily by gastric feeding, 10 weeks) was “slight, but insignificant decrease”. Further, the “Change in bodyweight under single treatment” value (“Change in bodyweight” for short) in assay [2] (setting [7]) is recorded as “could only prevent further gain in bodyweight, but did not result in weight loss; also recorded: stable body weight without further increase”. The “Insulin sensitivity in ITT” value in assay [3] (setting [8]) is on record as “marginal effect on improving insulin sensitivity but not reach statistical significant”. For the same compound, the “Glucose tolerance in GTT” value in assay [4] (setting [8]) is on record as “cannot relieve glucose intolerance”. Besides, in the assay with hepatocyte (setting [9]), the “TEM of liver: autophagosomes” value is recorded as “autophagosome was rarely seen; also recorded: no autophagosome is observed” and the “TEM of liver: lipid droplets” value is “significant decrease in lipid droplet size”. For the same compound, the “Lipid in liver (H&E staining)” value in assay [5] (rhArg and/or RA) is reported as “significant effect on diminishing lipid in liver”. Further, the “Mass of organs including liver, pancreas and BAT” value in assay [6] (setting [7]) was “can already reduce the mass of most organs”. Besides, the “Visceral and subcutaneous fat mass” value in assay [6] (rhArg once a week and/or 0.33 mg RA daily) was “did not reduce body fat”.
As for `CN(C)C(=N)N=C(N)N` [metformin, reference compound], the “Pattern of food intake (intermittent fasting cycle)” value in assay [1] (300 U rhArg i.p. once a week and/or 300 mg/kg metformin daily) is “stable”. Further, the “Total food intake per week, less than HFD (vehicle) group” value in assay [1] (300 U rhArg i.p. once a week and/or 300 mg/kg metformin daily by gastric feeding, 9 weeks) is on record as 13%. Further, in assay [2] (300 U rhArg once a week alone or 300 mg/kg metformin daily alone), the “Change in bodyweight” value is recorded as “stable body weight without further increase in body mass”. Also, in assay [2] (300 U rhArg once a week alone or 300 mg/kg metformin daily alone, listed as Met), the “Change in bodyweight” value is listed as “could only prevent further gain in bodyweight, but did not result in weight loss”. Also, the “Insulin sensitivity in ITT” value in assay [3] (setting [10]) is “cannot relieve insulin resistant”. In assay [4] (setting [10]), the “Glucose tolerance in GTT” value is “cannot relieve glucose intolerance”. In the assay on hepatocyte (setting [10]), the “TEM of liver: autophagosomes” value is given as “no autophagosome is observed; also recorded: autophagosome was rarely seen” and the “TEM of liver: lipid droplets” value was “significant decrease in lipid droplet size”. Besides, the “Lipid in liver (H&E staining)” value in assay [5] (rhArg and/or metformin) is “slight effect of diminishing lipid in liver”. Further, in assay [6] (setting [11]), the “Mass of organs including liver, kidney and BAT” value is “cannot reduce the mass of most organs”; the “Visceral and subcutaneous fat mass” value was “did not reduce body fat”.
